Source: patent US12077503B2, “Substituted cyclic amides and their use as herbicides” (FMC CORPORATION, priority 2015, dated 2024)

How the values were obtained:
Test in all cases: Test A postemergence
Format in all cases: in vivo
[1] = test system: corn (Zea mays); settings: Zea mays, post-emergence, 240 h, postemergence; for plant injury at 125 g/ha: 125 g ai/ha, visual injury vs untreated controls after approx. 10 d, 0 = no effect, 100 = complete control, read-out: Corn plant response rating (0 to 100 scale); for plant injury at 500 g/ha: 500 g ai/ha, 0 to 100 scale, 0 is no effect, 100 is complete control, read-out: Corn plant response rating
Method in brief: (§1)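 Preemergence directed soil spray on seeded pots, or postemergence application to plants 2–10 cm, one- to two-leaf. Solvent mixture non-phytotoxic, with surfactant. Scored ~10 d later, visually, 0–100 vs untreated.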

[2] = test system: wheat (Triticum aestivum); settings: Triticum aestivum, post-emergence, 240 h, postemergence; for plant injury at 125 g/ha: 125 g ai/ha, visual injury vs untreated controls after approx. 10 d, 0 = no effect, 100 = complete control, read-out: Wheat plant response rating (0 to 100 scale); for plant injury at 500 g/ha: 500 g ai/ha, 0 to 100 scale, 0 is no effect, 100 is complete control, read-out: Wheat plant response rating
Method in brief: as §1

[3] = test system: Galium (catchweed bedstraw, Galium aparine); settings: Galium, post-emergence, 240 h, postemergence; for pest or weed control at 125 g/ha: 125 g ai/ha, visual injury vs untreated controls after approx. 10 d, 0 = no effect, 100 = complete control, read-out: Galium plant response rating (0 to 100 scale); for pest or weed control at 500 g/ha: 500 g ai/ha, 0 to 100 scale, 0 is no effect, 100 is complete control, read-out: Galium plant response rating
Method in brief: as §1

[4] = test system: pigweed (Amaranthus retroflexus); settings: Amaranthus retroflexus, post-emergence, 240 h, postemergence; for pest or weed control at 125 g/ha: 125 g ai/ha, visual injury vs untreated controls after approx. 10 d, 0 = no effect, 100 = complete control, read-out: Pigweed plant response rating (0 to 100 scale); for pest or weed control at 500 g/ha: 500 g ai/ha, 0 to 100 scale, 0 is no effect, 100 is complete control, read-out: Pigweed plant response rating
Method in brief: as §1

[5] = test system: ryegrass, Italian (Italian ryegrass, Lolium multiflorum); settings: Lolium multiflorum, post-emergence, 240 h, postemergence; for pest or weed control at 125 g/ha: 125 g ai/ha, visual injury vs untreated controls after approx. 10 d, 0 = no effect, 100 = complete control, read-out: Ryegrass, Italian plant response rating (0 to 100 scale); for pest or weed control at 500 g/ha: 500 g ai/ha, 0 to 100 scale, 0 is no effect, 100 is complete control, read-out: Ryegrass, Italian plant response rating
Method in brief: as §1

Compound | plant injury at 125 g/ha [1] | plant injury at 500 g/ha [1] | plant injury at 125 g/ha [2] | plant injury at 500 g/ha [2] | pest or weed control at 125 g/ha [3] | pest or weed control at 500 g/ha [3] | pest or weed control at 125 g/ha [4] | pest or weed control at 500 g/ha [4] | pest or weed control at 125 g/ha [5] | pest or weed control at 500 g/ha [5]
N#Cc1cc([C@H]2CNC(=O)[C@@H]2C(=O)Nc2ccccc2F)ccc1F [Compound 1199] | 0% | 0% | 0% | 0% | 20% | 40% | 0% | 20% | 0% | 20%
COc1cc(C(F)(F)F)ccc1[C@H]1CNC(=O)[C@@H]1C(=O)Nc1cccc(F)c1F [Compound 1203] | 40% | 70% | 0% | 50% | 50% | 60% | 0% | 20% | 0% | 0%
N#Cc1ccc([C@H]2CNC(=O)[C@@H]2C(=O)Nc2cccc(F)c2F)cc1 [Compound 1206] | 0% | 0% | 0% | 0% | 30% | 50% | 0% | 30% | 0% | 0%
COc1ccc([C@H]2CN(C)C(=O)[C@@H]2C(=O)Nc2ccccc2SC)c(OC)c1 [Compound 1216] | 0% | 0% | 0% | 0% | 0% | 0% | 0% | 0% | 0% | 0%
COc1cc([C@H]2CN(C)C(=O)[C@@H]2C(=O)Nc2ccccc2SC)cc(OC)c1OC [Compound 1218] | 0% | 0% | 0% | 0% | 0% | 0% | 0% | 0% | 0% | 0%
Cc1ccc([C@H]2CCN(C)C(=O)[C@@H]2C(=O)Nc2ccccc2C(F)(F)F)cc1 [Compound 1219] | 0% | 0% | 0% | 0% | 0% | 0% | 0% | 0% | 0% | 20%
Cc1ccc([C@H]2CCN(C)C(=O)[C@@H]2C(=O)Nc2cccc(Cl)c2F)cc1 [Compound 1223] | 0% | 0% | 0% | 30% | 20% | 40% | 0% | 0% | 20% | 60%
CN1CC[C@H](c2ccc(C(F)(F)F)cc2)[C@@H](C(=O)Nc2ccccc2C(F)(F)F)C1=O [Compound 1224] | 0% | 0% | 0% | 0% | 0% | 40% | 0% | 20% | 0% | 0%
CN1CC[C@H](c2ccc(C(F)(F)F)cc2)[C@@H](C(=O)Nc2ccc(F)c(F)c2F)C1=O [Compound 1226] | 30% | 70% | 0% | 0% | 80% | 80% | 20% | 60% | 0% | 0%
